Measured values as given in ChEMBL document CHEMBL5032535, “Design, synthesis and biological evaluation of a novel spiro oxazolidinedione as potent p300/CBP HAT inhibitor for the treatment of ovarian cancer” (Bioorg Med Chem, 2021).
Active and inactive are the calls of the source. The rule behind the calls is not given here.

Columns and labels:
[1] = target: T1, Histone acetyltransferase p300 (Homo sapiens, UniProt Q09472); experiment: Inhibition of p300 (unknown origin) preincubated for 15 mins followed by addition of substrate [3H] Ac-CoA and measured after 60 mins by liquid scintillation counting assay
T1 sequence (Q09472 whole entry): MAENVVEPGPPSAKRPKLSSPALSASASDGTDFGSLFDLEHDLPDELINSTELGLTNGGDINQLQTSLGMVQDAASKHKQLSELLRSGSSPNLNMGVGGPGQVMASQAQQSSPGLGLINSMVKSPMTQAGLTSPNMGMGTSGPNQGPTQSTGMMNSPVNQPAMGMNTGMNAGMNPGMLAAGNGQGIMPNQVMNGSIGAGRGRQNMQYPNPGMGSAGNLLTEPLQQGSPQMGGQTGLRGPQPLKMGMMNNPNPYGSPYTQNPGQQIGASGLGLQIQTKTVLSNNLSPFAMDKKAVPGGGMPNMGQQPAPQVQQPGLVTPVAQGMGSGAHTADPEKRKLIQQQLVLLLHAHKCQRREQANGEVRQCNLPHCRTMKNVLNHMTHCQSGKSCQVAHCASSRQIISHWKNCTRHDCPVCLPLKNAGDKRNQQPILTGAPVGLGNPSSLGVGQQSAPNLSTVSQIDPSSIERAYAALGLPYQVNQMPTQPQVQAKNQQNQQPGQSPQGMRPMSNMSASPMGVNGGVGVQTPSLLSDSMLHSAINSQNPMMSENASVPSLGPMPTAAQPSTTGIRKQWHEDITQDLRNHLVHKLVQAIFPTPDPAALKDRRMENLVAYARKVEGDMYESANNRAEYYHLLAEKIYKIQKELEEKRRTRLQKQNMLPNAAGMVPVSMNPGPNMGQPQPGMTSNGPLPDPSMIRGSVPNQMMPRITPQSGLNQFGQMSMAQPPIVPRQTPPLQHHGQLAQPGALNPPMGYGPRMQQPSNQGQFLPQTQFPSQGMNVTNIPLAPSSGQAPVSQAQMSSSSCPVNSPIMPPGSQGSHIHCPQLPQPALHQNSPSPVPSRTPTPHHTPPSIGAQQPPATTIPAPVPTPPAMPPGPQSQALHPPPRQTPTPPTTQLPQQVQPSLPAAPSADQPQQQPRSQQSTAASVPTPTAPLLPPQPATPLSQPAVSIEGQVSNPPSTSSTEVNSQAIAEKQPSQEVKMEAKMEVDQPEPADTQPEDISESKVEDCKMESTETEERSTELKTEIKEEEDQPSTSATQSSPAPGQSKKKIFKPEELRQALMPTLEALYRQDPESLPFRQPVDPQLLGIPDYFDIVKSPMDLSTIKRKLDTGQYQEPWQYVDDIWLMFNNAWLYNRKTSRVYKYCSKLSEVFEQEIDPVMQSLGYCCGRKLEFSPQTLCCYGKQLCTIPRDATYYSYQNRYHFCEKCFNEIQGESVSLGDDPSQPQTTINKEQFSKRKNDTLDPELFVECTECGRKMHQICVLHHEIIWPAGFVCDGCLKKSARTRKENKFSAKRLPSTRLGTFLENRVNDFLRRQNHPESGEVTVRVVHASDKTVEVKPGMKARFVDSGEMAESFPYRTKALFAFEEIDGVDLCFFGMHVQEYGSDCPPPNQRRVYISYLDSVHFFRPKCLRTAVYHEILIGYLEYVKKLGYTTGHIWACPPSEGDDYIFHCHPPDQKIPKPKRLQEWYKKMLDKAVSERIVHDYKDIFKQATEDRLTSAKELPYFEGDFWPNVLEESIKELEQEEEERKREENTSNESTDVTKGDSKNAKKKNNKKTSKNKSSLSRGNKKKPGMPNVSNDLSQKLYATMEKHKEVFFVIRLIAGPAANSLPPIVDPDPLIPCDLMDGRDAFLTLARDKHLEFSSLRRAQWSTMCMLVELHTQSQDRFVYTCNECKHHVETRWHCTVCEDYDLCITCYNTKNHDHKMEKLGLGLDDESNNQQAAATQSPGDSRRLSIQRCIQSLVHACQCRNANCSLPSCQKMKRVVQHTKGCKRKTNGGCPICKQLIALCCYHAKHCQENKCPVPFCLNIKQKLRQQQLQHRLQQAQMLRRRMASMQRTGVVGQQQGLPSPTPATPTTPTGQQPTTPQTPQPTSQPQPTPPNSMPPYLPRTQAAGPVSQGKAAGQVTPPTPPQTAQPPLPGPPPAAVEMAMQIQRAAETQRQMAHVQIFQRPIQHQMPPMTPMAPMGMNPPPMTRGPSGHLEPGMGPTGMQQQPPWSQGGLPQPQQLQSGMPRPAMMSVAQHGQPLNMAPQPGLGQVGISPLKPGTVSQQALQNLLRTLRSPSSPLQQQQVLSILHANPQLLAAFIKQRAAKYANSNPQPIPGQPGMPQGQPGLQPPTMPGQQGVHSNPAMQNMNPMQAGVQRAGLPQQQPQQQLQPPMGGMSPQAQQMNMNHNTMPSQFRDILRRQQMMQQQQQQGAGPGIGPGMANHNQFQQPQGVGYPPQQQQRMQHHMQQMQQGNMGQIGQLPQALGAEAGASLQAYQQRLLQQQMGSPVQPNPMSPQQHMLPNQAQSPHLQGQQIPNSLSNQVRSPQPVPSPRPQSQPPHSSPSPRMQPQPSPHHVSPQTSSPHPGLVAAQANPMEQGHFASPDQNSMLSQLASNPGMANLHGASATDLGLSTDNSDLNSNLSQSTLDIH

CREB-binding protein = CREB-binding protein (Homo sapiens, UniProt Q92793); experiment: Inhibition of CBP (unknown origin) preincubated for 15 mins followed by addition of substrate [3H] Ac-CoA and measured after 60 mins by liquid scintillation counting assay
Chain of CREB-binding protein (Q92793 whole entry): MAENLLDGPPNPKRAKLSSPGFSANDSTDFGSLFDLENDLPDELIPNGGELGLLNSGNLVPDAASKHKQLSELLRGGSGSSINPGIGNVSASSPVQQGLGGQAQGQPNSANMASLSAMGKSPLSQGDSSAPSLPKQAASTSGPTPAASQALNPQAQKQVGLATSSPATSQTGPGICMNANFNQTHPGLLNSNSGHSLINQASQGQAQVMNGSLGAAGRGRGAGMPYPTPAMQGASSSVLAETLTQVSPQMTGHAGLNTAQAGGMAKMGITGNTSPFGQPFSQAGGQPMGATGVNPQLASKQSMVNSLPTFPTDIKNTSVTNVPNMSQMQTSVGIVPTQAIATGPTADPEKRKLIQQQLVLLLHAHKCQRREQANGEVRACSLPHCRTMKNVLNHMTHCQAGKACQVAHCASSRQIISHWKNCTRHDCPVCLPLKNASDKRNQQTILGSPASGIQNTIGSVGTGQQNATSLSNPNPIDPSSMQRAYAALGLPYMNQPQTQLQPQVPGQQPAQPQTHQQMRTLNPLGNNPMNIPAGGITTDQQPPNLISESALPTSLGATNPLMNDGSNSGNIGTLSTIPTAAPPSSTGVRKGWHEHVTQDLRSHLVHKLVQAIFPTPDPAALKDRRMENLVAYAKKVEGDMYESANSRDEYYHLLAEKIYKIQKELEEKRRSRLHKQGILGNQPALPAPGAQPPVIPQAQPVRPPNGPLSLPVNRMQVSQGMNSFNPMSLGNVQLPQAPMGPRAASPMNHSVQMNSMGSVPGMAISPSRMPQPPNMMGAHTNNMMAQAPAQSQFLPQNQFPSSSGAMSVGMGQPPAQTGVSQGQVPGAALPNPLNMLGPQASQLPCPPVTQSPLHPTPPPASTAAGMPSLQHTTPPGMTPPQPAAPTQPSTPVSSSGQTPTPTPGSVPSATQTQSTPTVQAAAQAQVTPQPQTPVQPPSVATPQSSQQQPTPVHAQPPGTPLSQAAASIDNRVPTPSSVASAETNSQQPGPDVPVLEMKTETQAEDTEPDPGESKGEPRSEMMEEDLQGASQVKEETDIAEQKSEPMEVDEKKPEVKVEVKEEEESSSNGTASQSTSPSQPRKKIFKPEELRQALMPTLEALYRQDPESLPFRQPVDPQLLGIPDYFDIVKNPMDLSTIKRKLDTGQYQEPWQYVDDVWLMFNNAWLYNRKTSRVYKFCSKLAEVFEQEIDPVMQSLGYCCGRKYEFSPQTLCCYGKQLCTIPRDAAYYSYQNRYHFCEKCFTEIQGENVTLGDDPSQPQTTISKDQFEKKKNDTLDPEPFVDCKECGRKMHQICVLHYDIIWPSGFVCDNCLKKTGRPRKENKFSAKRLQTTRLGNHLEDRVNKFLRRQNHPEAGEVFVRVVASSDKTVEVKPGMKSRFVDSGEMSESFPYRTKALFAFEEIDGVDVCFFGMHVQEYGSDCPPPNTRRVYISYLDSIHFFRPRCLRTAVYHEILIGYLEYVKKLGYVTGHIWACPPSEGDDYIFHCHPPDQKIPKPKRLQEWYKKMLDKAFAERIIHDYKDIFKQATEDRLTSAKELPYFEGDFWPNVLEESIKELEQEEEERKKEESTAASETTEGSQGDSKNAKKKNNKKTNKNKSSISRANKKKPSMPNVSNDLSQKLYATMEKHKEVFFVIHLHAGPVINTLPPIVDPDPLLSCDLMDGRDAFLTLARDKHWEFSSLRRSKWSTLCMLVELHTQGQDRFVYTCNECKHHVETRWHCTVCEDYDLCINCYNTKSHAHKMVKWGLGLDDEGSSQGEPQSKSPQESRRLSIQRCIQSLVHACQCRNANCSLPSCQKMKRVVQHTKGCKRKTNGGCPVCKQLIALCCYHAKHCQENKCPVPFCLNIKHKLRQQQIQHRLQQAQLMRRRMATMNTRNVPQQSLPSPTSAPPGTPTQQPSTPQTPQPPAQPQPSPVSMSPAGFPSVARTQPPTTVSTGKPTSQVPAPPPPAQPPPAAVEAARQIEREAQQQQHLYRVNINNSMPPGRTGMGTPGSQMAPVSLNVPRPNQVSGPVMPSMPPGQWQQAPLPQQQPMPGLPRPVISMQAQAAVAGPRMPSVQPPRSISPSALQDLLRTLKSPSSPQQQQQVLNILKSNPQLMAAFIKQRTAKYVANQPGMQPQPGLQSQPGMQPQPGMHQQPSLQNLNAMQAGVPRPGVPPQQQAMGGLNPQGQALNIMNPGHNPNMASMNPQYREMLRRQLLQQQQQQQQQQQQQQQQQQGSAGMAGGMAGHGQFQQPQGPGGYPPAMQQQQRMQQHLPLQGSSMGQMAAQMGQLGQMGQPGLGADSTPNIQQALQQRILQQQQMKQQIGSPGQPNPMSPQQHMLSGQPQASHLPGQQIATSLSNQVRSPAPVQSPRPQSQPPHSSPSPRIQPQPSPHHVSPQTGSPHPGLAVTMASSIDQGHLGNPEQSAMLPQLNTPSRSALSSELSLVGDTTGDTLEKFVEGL

OVCAR-3 [2] = experiment: Antiproliferative activity against human OVCAR-3 cells assessed as inhibition of cell proliferation measured after 120 hrs by Cell-titre glo assay; type: functional, cell-based; settings: OVCAR-3, 120 h
A2780 = experiment: Antiproliferative activity against human A2780 cells assessed as inhibition of cell proliferation measured after 120 hrs by Cell-titre glo assay; type: functional, cell-based; settings: A2780, 120 h
[3] = Stability in human liver microsomes assessed as intrinsic clearance; type: ADME, Microsome
[4] = Stability in rat liver microsomes assessed as intrinsic clearance; type: ADME, Microsome
[5] = Stability in mouse liver microsomes assessed as intrinsic clearance; type: ADME, Microsome
[6] = Half life in Sprague-Dawley rat at 3 mg/kg, po; type: ADME, organism-based; settings: in vivo
[7] = Tmax in Sprague-Dawley rat at 3 mg/kg, po; type: ADME, organism-based; settings: in vivo
[8] = Cmax in Sprague-Dawley rat at 3 mg/kg, po; type: ADME, organism-based; set-up: route oral, dose 3 mg/kg; settings: in vivo
[9] = AUC(last) in Sprague-Dawley rat at 3 mg/kg, po; type: ADME, organism-based; set-up: time 0 - last, route oral, dose 3 mg/kg; settings: in vivo
[10] = target: T1, Histone acetyltransferase p300; experiment: Inhibition of p300 (unknown origin)
[11] = target: T1, Histone acetyltransferase p300; experiment: Inhibition of p300 in human OVCAR-3 cells assessed as reduction of H3K18ac levels measured after 24 hrs by Western blot assay; type: cell-based; settings: dose 0.25-4 µM
[12] = target: T1, Histone acetyltransferase p300; experiment: Inhibition of p300 in human OVCAR-3 cells assessed as reduction of H3K27ac levels measured after 24 hrs by Western blot assay; type: cell-based; settings: dose 0.25-4 µM
[13] = target: Histone acetyltransferase KAT2A (Homo sapiens) (UniProt Q92830); experiment: Inhibition of GCN5 in human OVCAR-3 cells assessed as reduction of H3K9ac levels at 0.25 to 4 uM after 24 hrs by Western blot assay; type: cell-based; settings: dose 0.25-4 µM
[14] = target: CREB-binding protein/Histone acetyltransferase p300 (Homo sapiens) (UniProt Q09472+Q92793); experiment: Inhibition of p300/CBP in human OVCAR-3 cells assessed as reduction of C-myc levels at 0.25 uM measured after 2 days by Western blot assay relative to control; type: cell-based; settings: time 2.0 day
Chain of CREB-binding protein/Histone acetyltransferase p300 (Homo sapiens) (Q09472 whole entry, looked up): as the sequence (Q09472 whole entry) above
Chain of CREB-binding protein/Histone acetyltransferase p300 (Homo sapiens) (Q92793 whole entry, looked up): as the sequence (Q92793 whole entry) above

[15] = Toxicity in Balb/c nude mouse xenografted with human OVCAR-3 cells assessed as body weight loss at 20 to 30 mg/kg, ip qd measured every 3 to 4 days for 2 weeks; type: organism-based; settings: in vivo, 336 h, dose 20-30 mg/kg
[16] = Toxicity in Balb/c nude mouse xenografted with human OVCAR-3 cells assessed as body weight loss at 30 mg/kg, ip measured after 24 days; type: organism-based; settings: in vivo, 576 h, time 24 day
OVCAR-3 [17] = experiment: Antitumour activity against human OVCAR-3 cells xenografted in Balb/c mouse assessed as reduction of tumor volume at 30 mg/kg, ip qd measured every 3 to 4 days for 2 weeks (reference value: 2838.39 +/- 1392.47 mm3); type: functional
OVCAR-3 [18] = experiment: Antitumour activity against human OVCAR-3 cells xenografted in Balb/c mouse assessed as reduction of tumor volume at 20 mg/kg, ip qd measured every 3 to 4 days for 2 weeks; type: functional, organism-based
OVCAR-3 [19] = experiment: Antitumour activity against human OVCAR-3 cells xenografted in Balb/c mouse assessed as reduction of tumor volume at 100 mg/kg, ip qd measured every 3 to 4 days for 2 weeks; type: functional, organism-based
SK-OV-3 = experiment: Antiproliferative activity against human SK-OV-3 cells assessed as inhibition of cell proliferation measured after 120 hrs by Cell-titre glo assay; type: functional, cell-based
TOV21G = experiment: Antiproliferative activity against human TOV-21G cells assessed as inhibition of cell proliferation measured after 120 hrs by Cell-titre glo assay; type: functional, cell-based
HEK293 = experiment: Antiproliferative activity against human 293 cells assessed as inhibition of cell proliferation measured after 120 hrs by Cell-titre glo assay; type: cell-based; settings: hek293, 120 h

| SMILES | IC50 [1] | IC50 (CREB-binding protein) | EC50 (OVCAR-3 [2]) | EC50 (A2780) | other results |
| --- | --- | --- | --- | --- | --- |
| CNC(=O)Nc1ccc2c(c1)CC[C@@]21OC(=O)N(CC(=O)N2Cc3cccnc3CC[C@H]2C2CC2)C1=O | 0.01 µM | 0.044 µM | – | – | – |
| CNC(=O)Nc1ccc2c(c1)CC[C@@]21OC(=O)N(CC(=O)N2Cc3ccncc3CC[C@H]2C2CC2)C1=O | 0.0098 µM | 0.028 µM | – | – | – |
| CNC(=O)Nc1ccc2c(c1)CC[C@@]21OC(=O)N(CC(=O)N(Cc2ccc(F)cc2)[C@@H](C)C(F)(F)F)C1=O [A-485] | – | – | 5.44 µM | – | – |
| CNC(=O)Nc1ccc2c(c1)CC[C@@]21OC(=O)N(CC(=O)N2Cc3ccccc3CC[C@H]2C)C1=O | 0.0025 µM | 0.028 µM | 0.865 µM | 2.71 µM | – |
| CNC(=O)Nc1ccc2c(c1)CC[C@@]21OC(=O)N(CC(=O)N2Cc3cc(F)ccc3OC[C@H]2C2CC2)C1=O | 0.00049 µM | 0.0071 µM | 0.153 µM | 0.678 µM | CLH [3]: 34.8 mL/min/g; CLH [4]: 66.5 mL/min/g; CLH [5]: 48 mL/min/g; t1/2 [6]: 1.4 h; Tmax [7]: 1 h; Cmax [8]: 20.3 ng/mL; AUClast [9]: 480 ng·h/mL; IC50 [10]: 0.00051 µM; inhibition [11]: Dose-Dependent Effect; inhibition [12]: Dose-Dependent Effect; inhibition [13]: inactive; inhibition [14]: 50%; Activity [15]: Toxic; Activity [16]: Toxic; Activity (OVCAR-3 [17]): 1703.74 mm3; Activity (OVCAR-3 [18]): Active; Activity (OVCAR-3 [19]): Active; Activity (SK-OV-3): Active; Activity (TOV21G): Active; Activity (HEK293): Non-Toxic |
| CNC(=O)Nc1ccc2c(c1)CCC[C@@]21OC(=O)N(CC(=O)N2Cc3ccc(F)cc3CC[C@H]2C2CC2)C1=O | 0.0022 µM | 0.014 µM | – | – | – |
| CNC(=O)Nc1ccc2c(c1)CCC[C@@]21OC(=O)N(CC(=O)N2Cc3cc(F)ccc3OC[C@H]2C2CC2)C1=O | 0.011 µM | 0.069 µM | – | – | – |
| CNC(=O)Nc1ccc2c(c1)CC[C@@]21OC(=O)N(CC(=O)N2Cc3sccc3OC[C@H]2C2CC2)C1=O | 0.004 µM | 0.012 µM | – | – | – |
| CNC(=O)Nc1ccc2c(c1)CC[C@@]21OC(=O)N(CC(=O)N2Cc3ccc(F)cc3CC[C@H]2C2CC2)C1=O | 0.00095 µM | 0.0081 µM | 0.0904 µM | 0.471 µM | CLH [3]: 112 mL/min/g; CLH [4]: 258 mL/min/g; CLH [5]: 150 mL/min/g |
| CNC(=O)Nc1ccc2c(c1)CC[C@@]21OC(=O)N(CC(=O)N2Cc3cnccc3CC[C@H]2C2CC2)C1=O | 0.013 µM | 0.041 µM | – | – | – |
| CNC(=O)Nc1ccc2c(c1)OCC[C@@]21OC(=O)N(CC(=O)N2Cc3ccc(F)cc3CC[C@H]2C2CC2)C1=O | 0.0086 µM | 0.022 µM | – | – | – |
| CNC(=O)Nc1ccc2c(c1)CC[C@@]21OC(=O)N(CC(=O)N2Cc3cc(F)c(F)cc3CC[C@H]2C2CC2)C1=O | 0.00056 µM | 0.007 µM | 0.164 µM | 0.974 µM | – |
| CNC(=O)Nc1ccc2c(c1)COC[C@@]21OC(=O)N(CC(=O)N2Cc3cc(F)ccc3OC[C@H]2C2CC2)C1=O | 0.012 µM | 0.051 µM | – | – | – |
| CNC(=O)Nc1ccc2c(c1)CC[C@@]21OC(=O)N(CC(=O)N2Cc3ncccc3CC[C@H]2C2CC2)C1=O | 0.0086 µM | 0.03 µM | – | – | – |
| CNC(=O)Nc1cc2c(cc1F)[C@@]1(CC2)OC(=O)N(CC(=O)N2Cc3ccc(F)cc3CC[C@H]2C2CC2)C1=O | 0.0017 µM | 0.0082 µM | 4.3 µM | 4.47 µM | CLH [3]: 161 mL/min/g; CLH [4]: 94.4 mL/min/g; CLH [5]: 106 mL/min/g |
| CNC(=O)Nc1ccc2c(c1)CC[C@@]21OC(=O)N(CC(=O)N2Cc3sc(C)c(C)c3OC[C@H]2C(F)(F)F)C1=O | 0.43 µM | 0.68 µM | – | – | – |
